Our source for the pest or weed control and plant injury values is patent US11634390B2, “Agricultural chemicals” (GLOBACHEM NV, priority 2016, dated 2023).

Where a name gives a salt, the structure may show the parent alone.

Holding throughout (type): in vivo
One assay deals with Amaranthus retroflexus. Briefly: Herbicidal screen, post-emergence spray of seedlings in pots: common amaranthus. Particulars: Amaranthus retroflexus, post-emergence, 240 h, assessed 10 days after treatment, read-out: percentage increase in necrosis relative to the control. The protocol: (§1) Compounds were screened at four concentrations (100, 50, 25 and 12.5 g/ha) against four weed species (Stellaria media—Chickweed; Abutilon theophrasti—velvetleaf; Amaranthus retroflexus—common amaranthus; Echinochloa crus-galli—Barnyard grass) and maize as a crop species. Seed were sown in 12.5 cm diameter pots (20 per pot for the weed species and 5 for maize). Seedlings were sprayed with 2 ml of compound two weeks after sowing, with 2 ml water used as the control. Each treatment was replicated three times. Plants were maintained at 20° C. and assessed 10 days after treatment. The assessment was based on the % plant in each pot showing growth. The data is presented in Table 1 in which d represents no detected effect at this concentration; c represents a percentage increase in necrosis relative to the control of 0.1-50; b represents a percentage increase in necrosis of 50-80; and a represents a percentage increase in necrosis of 80-100.

The test system of the next assay is maize. Nature of the assay: Herbicidal screen, post-emergence spray of seedlings in pots: crop species. The note with it: Zea mays, post-emergence, 240 h, assessed 10 days after treatment, read-out: percentage increase in necrosis relative to the control. As to the method:
as §1

The test system of the next assay is Stellaria media. Briefly: Herbicidal screen, post-emergence spray of seedlings in pots: Chickweed. Particulars: Stellaria media, post-emergence, 240 h, assessed 10 days after treatment, read-out: percentage increase in necrosis relative to the control. As to the method: as §1
The subject of another assay is Echinochloa crus-galli. Briefly: Herbicidal screen, post-emergence spray of seedlings in pots: Barnyard grass. The note with it: Echinochloa crus-galli, post-emergence, 240 h, assessed 10 days after treatment, read-out: percentage increase in necrosis relative to the control. As to the method:
as §1

For the next assay, the system named is Abutilon theophrasti. Nature of the assay: Herbicidal screen, post-emergence spray of seedlings in pots: velvetleaf. The note with it: Abutilon theophrasti, post-emergence, 240 h, assessed 10 days after treatment, read-out: percentage increase in necrosis relative to the control. As to the method: as §1

As for `Cn1c(C(F)(F)F)cc(=O)n(-c2cc(C(=O)NS(=O)(=O)C3CCOCC3)c(Cl)cc2F)c1=O` [Example 1, 2-Chloro-4-fluoro-5-(3-methyl-2,6-dioxo-4-(trifluoromethyl)-3,6-dihydropyrimidin-1(2H)-yl)-N-((tetrahydro-2H-pyran-4-yl)sulfonyl)benzamide], in the assay with Amaranthus retroflexus, the pest or weed control at 12.5 g/ha is 0.1 to 50%, the pest or weed control at 25 g/ha fell in the range of 50 to 80%, the pest or weed control at 50 g/ha is 50 to 80% and the pest or weed control at 100 g/ha lay in the range of 80 to 100%. Moreover, in the assay with maize, the plant injury at 12.5 g/ha lay in the range of 0.1 to 50%, the plant injury at 25 g/ha is 0.1 to 50%, the plant injury at 50 g/ha lay in the range of 0.1 to 50% and the plant injury at 100 g/ha is 0.1 to 50%. In the assay with Stellaria media, the pest or weed control at 12.5 g/ha lay within 0.1 to 50%, the pest or weed control at 25 g/ha was 0.1 to 50%, the pest or weed control at 50 g/ha lay within 0.1 to 50% and the pest or weed control at 100 g/ha is 0.1 to 50%. For the same molecule, in the assay on Echinochloa crus-galli, the pest or weed control at 12.5 g/ha was 0.1 to 50%, the pest or weed control at 25 g/ha lay within 0.1 to 50%, the pest or weed control at 50 g/ha is 0.1 to 50% and the pest or weed control at 100 g/ha is 0.1 to 50%. In addition, in the assay on Abutilon theophrasti, the pest or weed control at 12.5 g/ha fell in the range of 0.1 to 50%, the pest or weed control at 25 g/ha was 50 to 80%, the pest or weed control at 50 g/ha is 50 to 80% and the pest or weed control at 100 g/ha lay in the range of 50 to 80%.

On to `Cn1c(C(F)(F)F)cc(=O)n(-c2cc(C(=O)NS(=O)(=O)C3CCNC3)c(Cl)cc2F)c1=O` (stereo not shown) [Example 4, 2-Chloro-4-fluoro-5-(3-methyl-2,6-dioxo-4-(trifluoromethyl)-3,6-dihydropyrimidin-1(2H)-yl)-N-(pyrrolidin-3-ylsulfonyl)benzamide hydrochloride], for which, in the assay with Amaranthus retroflexus, the pest or weed control at 12.5 g/ha lay in the range of 50 to 80%, the pest or weed control at 25 g/ha fell in the range of 50 to 80%, the pest or weed control at 50 g/ha was 80 to 100% and the pest or weed control at 100 g/ha was in the range of 80 to 100%. Moreover, in the assay on maize, the plant injury at 12.5 g/ha is 0.1 to 50%, the plant injury at 25 g/ha lay in the range of 0.1 to 50%, the plant injury at 50 g/ha was 0.1 to 50% and the plant injury at 100 g/ha fell in the range of 0.1 to 50%. Moreover, in the assay on Stellaria media, the pest or weed control at 12.5 g/ha lay within 0.1 to 50%, the pest or weed control at 25 g/ha lay within 0.1 to 50%, the pest or weed control at 50 g/ha lay within 0.1 to 50% and the pest or weed control at 100 g/ha lay in the range of 50 to 80%. Besides, in the assay with Echinochloa crus-galli, the pest or weed control at 12.5 g/ha is 0.1 to 50%, the pest or weed control at 25 g/ha is 0.1 to 50%, the pest or weed control at 50 g/ha lay within 0.1 to 50% and the pest or weed control at 100 g/ha lay within 0.1 to 50%. In the assay on Abutilon theophrasti, the pest or weed control at 12.5 g/ha was in the range of 0.1 to 50%, the pest or weed control at 25 g/ha lay in the range of 0.1 to 50%, the pest or weed control at 50 g/ha was 0.1 to 50% and the pest or weed control at 100 g/ha lay in the range of 50 to 80%.

As for `Cn1c(C(F)(F)F)cc(=O)n(-c2cc(C(=O)NS(=O)(=O)C3CNC3)c(Cl)cc2F)c1=O` [Example 6, N-(Azetidin-3-ylsulfonyl)-2-chloro-4-fluoro-5-(3-methyl-2,6-dioxo-4-(trifluoromethyl)-3,6-dihydropyrimidin-1(2H)-yl)benzamide hydrochloride], in the assay on Amaranthus retroflexus, the pest or weed control at 12.5 g/ha is 50 to 80%, the pest or weed control at 25 g/ha was in the range of 50 to 80%, the pest or weed control at 50 g/ha was 80 to 100% and the pest or weed control at 100 g/ha fell in the range of 80 to 100%. For the same molecule, in the assay with maize, the plant injury at 12.5 g/ha is 0.1 to 50%, the plant injury at 25 g/ha lay within 0.1 to 50%, the plant injury at 50 g/ha lay within 0.1 to 50% and the plant injury at 100 g/ha lay in the range of 0.1 to 50%. Moreover, in the assay on Stellaria media, the pest or weed control at 12.5 g/ha lay within 0.1 to 50%, the pest or weed control at 25 g/ha is 0.1 to 50%, the pest or weed control at 50 g/ha is 0.1 to 50% and the pest or weed control at 100 g/ha lay in the range of 50 to 80%. Also, in the assay with Echinochloa crus-galli, the pest or weed control at 12.5 g/ha lay in the range of 0.1 to 50%, the pest or weed control at 25 g/ha lay in the range of 0.1 to 50%, the pest or weed control at 50 g/ha fell in the range of 0.1 to 50% and the pest or weed control at 100 g/ha fell in the range of 0.1 to 50%. In the assay on Abutilon theophrasti, the pest or weed control at 12.5 g/ha lay within 0.1 to 50%, the pest or weed control at 25 g/ha was in the range of 0.1 to 50%, the pest or weed control at 50 g/ha is 50 to 80% and the pest or weed control at 100 g/ha lay within 50 to 80%.

`Cn1c(C(F)(F)F)cc(=O)n(-c2cc(C(=O)NS(=O)(=O)C3CC3)c(F)cc2F)c1=O` [Example 8, N-(Cyclopropylsulfonyl)-2,4-difluoro-5-(3-methyl-2,6-dioxo-4-(trifluoromethyl)-3,6-dihydropyrimidin-1(2H)-yl)benzamide]: in the assay with Amaranthus retroflexus, the pest or weed control at 12.5 g/ha is 0.1 to 50%, the pest or weed control at 25 g/ha was 0.1 to 50%, the pest or weed control at 50 g/ha is 80 to 100% and the pest or weed control at 100 g/ha lay in the range of 80 to 100%. For the same molecule, in the assay with maize, the plant injury at 12.5 g/ha was 0.1 to 50%, the plant injury at 25 g/ha is 0.1 to 50%, the plant injury at 50 g/ha was in the range of 0.1 to 50% and the plant injury at 100 g/ha is 0.1 to 50%. Also, in the assay on Stellaria media, the pest or weed control at 12.5 g/ha was 0.1 to 50%, the pest or weed control at 25 g/ha lay within 0.1 to 50%, the pest or weed control at 50 g/ha was 0.1 to 50% and the pest or weed control at 100 g/ha lay within 50 to 80%. Moreover, in the assay on Echinochloa crus-galli, the pest or weed control at 12.5 g/ha is 0.1 to 50%, the pest or weed control at 25 g/ha fell in the range of 0.1 to 50%, the pest or weed control at 50 g/ha was 50 to 80% and the pest or weed control at 100 g/ha lay within 50 to 80%. For the same molecule, in the assay on Abutilon theophrasti, the pest or weed control at 12.5 g/ha is 0.1 to 50%, the pest or weed control at 25 g/ha is 0.1 to 50%, the pest or weed control at 50 g/ha was in the range of 50 to 80% and the pest or weed control at 100 g/ha was 50 to 80%.

Consider `Cn1c(C(F)(F)F)cc(=O)n(-c2cc(C(=O)NS(=O)(=O)C3CCS(=O)(=O)C3)c(Cl)cc2F)c1=O` (stereo not shown) [Example 10, 2-Chloro-N-((1,1-dioxidotetrahydrothiophen-3-yl)sulfonyl)-4-fluoro-5-(3-methyl-2,6-dioxo-4-(trifluoromethyl)-3,6-dihydropyrimidin-1(2H)-yl)benzamide], for which, in the assay on Amaranthus retroflexus, the pest or weed control at 12.5 g/ha was 50 to 80%, the pest or weed control at 25 g/ha was in the range of 50 to 80%, the pest or weed control at 50 g/ha is 50 to 80% and the pest or weed control at 100 g/ha was in the range of 50 to 80%. In the assay on maize, the plant injury at 12.5 g/ha was in the range of 0.1 to 50%, the plant injury at 25 g/ha was in the range of 0.1 to 50%, the plant injury at 50 g/ha fell in the range of 0.1 to 50% and the plant injury at 100 g/ha was in the range of 0.1 to 50%. In addition, in the assay with Stellaria media, the pest or weed control at 12.5 g/ha was 0.1 to 50%, the pest or weed control at 25 g/ha lay in the range of 0.1 to 50%, the pest or weed control at 50 g/ha lay in the range of 0.1 to 50% and the pest or weed control at 100 g/ha lay within 0.1 to 50%. Further, in the assay on Echinochloa crus-galli, the pest or weed control at 12.5 g/ha fell in the range of 0.1 to 50%, the pest or weed control at 25 g/ha was 0.1 to 50%, the pest or weed control at 50 g/ha was in the range of 0.1 to 50% and the pest or weed control at 100 g/ha lay in the range of 0.1 to 50%. In addition, in the assay with Abutilon theophrasti, the pest or weed control at 12.5 g/ha lay within 0.1 to 50%, the pest or weed control at 25 g/ha fell in the range of 0.1 to 50%, the pest or weed control at 50 g/ha was 0.1 to 50% and the pest or weed control at 100 g/ha is 0.1 to 50%.
